pIC50: −log10 of the molar value. Read-outs that look alike come from different tables or passages of the source.
How the values were obtained:
[1] = test system: HCT116 WT cells; test: HCT116 proliferation assay, WT cells (CellTiter-Glo, 6 days); assay type: cell-based; settings: Homo sapiens, HCT-116, 144 h, read-out: Prolif_HCT116-WT IC50
Summary of the method: (§1)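 Cells were plated in RPMI 1640 with 10% fetal bovine serum and left overnight at 37° C and 5% CO2. Compound was then added as an 8- or 9-point 1:3 dilution series from a top concentration of 1 or 10 µM, alongside a DMSO-only control. Viability was read by luminescence.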

[2] = molecular target: PRMT5/MEP50 (Homo sapiens, UniProt O14744); test: MTase-Glo methyl transferase assay, Method A (Histone H4 peptide, 1 µM MTA, 24 h pre-incubation); assay type: biochemical; set-up: made in house; settings: read-out: PRMT5 MTase Glo Ki (nM, Meth. A)
Sequence of PRMT5/MEP50 (O14744 whole entry): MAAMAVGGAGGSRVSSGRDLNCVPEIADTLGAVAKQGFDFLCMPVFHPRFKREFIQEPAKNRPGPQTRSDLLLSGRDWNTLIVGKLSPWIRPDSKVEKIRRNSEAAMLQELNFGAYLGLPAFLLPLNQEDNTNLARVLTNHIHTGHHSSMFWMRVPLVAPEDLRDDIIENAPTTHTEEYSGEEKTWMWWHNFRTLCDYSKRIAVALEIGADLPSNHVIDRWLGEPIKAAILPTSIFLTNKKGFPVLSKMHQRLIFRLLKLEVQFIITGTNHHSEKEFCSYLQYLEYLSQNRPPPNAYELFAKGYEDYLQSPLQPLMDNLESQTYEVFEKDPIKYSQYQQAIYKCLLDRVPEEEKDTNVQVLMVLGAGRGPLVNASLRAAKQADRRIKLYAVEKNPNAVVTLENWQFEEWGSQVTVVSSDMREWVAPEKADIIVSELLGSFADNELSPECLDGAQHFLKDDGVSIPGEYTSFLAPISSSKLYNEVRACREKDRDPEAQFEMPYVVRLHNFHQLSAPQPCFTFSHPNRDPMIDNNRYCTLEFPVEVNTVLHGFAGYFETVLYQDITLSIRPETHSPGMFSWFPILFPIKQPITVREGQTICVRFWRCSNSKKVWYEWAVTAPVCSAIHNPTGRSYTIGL
Sequence of PRMT5/MEP50 (Q9BQA1 whole entry partner): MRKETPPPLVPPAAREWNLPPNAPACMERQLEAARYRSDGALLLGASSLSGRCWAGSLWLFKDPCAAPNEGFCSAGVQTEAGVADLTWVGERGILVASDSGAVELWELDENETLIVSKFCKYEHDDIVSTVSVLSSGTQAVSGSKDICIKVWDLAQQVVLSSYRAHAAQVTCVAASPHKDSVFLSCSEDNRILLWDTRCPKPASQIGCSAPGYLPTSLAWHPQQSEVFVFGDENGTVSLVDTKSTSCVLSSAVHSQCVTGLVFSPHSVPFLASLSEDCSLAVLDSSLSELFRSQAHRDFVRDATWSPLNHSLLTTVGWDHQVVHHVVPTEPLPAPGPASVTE
Summary of the method: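 PRMT5/MEP50 (10 nM) pre-incubated 24 h with compound, 5 µM SAM and 1 µM MTA, then reaction started with 1 µM Histone H4 (1-21) peptide and run 2 h at room temperature in Tris pH 8.0 buffer. SAH formed detected by MTase-Glo luminescence; IC50 and KI from dose-response curves.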

[3] = test system: HCT116 MTAP null cells; test: HCT116 proliferation assay, MTAP null cells (CellTiter-Glo, 6 days); assay type: cell-based; settings: 144 h, read-out: Protif_ HCT116-MTAP null IC50
Summary of the method: as §1

N#Cc1ccc(CN(C(=O)c2cnc3nc(N)c(Br)cc3c2)[C@@H](c2ncccn2)C2CC2)nc1 [Example 425, (R)-7-amino-6-bromo-N-((5-cyanopyridin-2-yl)methyl)-N-(cyclopropyl(pyrimidin-2-yl)methyl)-1,8-naphthyridine-3-carboxamide]
pIC50 [1]: 5.66 | Ki [2]: 0.68 nM | pIC50 ([3]; HCT116-MTAP null): 6.42

C[C@H](c1ncccn1)N(Cc1ccc(OC2COC2)cn1)C(=O)c1cnc2nc(N)c(Br)cc2c1 [Example 426, 7-amino-6-bromo-N-((5-(3-oxetanyloxy)-2-pyridinyl)methyl)-N-((1R)-1-(2-pyrimidinyl)ethyl)-1,8-naphthyridine-3-carboxamide]
pIC50 [1]: < 5.00 | Ki [2]: 0.47 nM | pIC50 ([3]; HCT116-MTAP null): 6.02

Cc1cc2cc(C(=O)N(Cc3ccc(OC4COC4)cn3)[C@H](C)c3ncccn3)ccc2nc1N [Example 427, 2-amino-3-methyl-N-((5-(3-oxetanyloxy)-2-pyridinyl)methyl)-N-((1R)-1-(2-pyrimidinyl)ethyl)-6-quinolinecarboxamide]
pIC50 [1]: 5.37 | Ki [2]: 0.1 nM | pIC50 ([3]; HCT116-MTAP null): 6.82

Cc1cc2cc(C(=O)N(Cc3ccc(C(F)(F)F)cn3)[C@H](C)c3ccc(Cl)cn3)ccc2nc1N [Example 428, 2-amino-N-((1R)-1-(5-chloro-2-pyridinyl)ethyl)-3-methyl-N-((5-(trifluoromethyl)-2-pyridinyl)methyl)-6-quinolinecarboxamide]
pIC50 [1]: 5.43 | Ki [2]: 0.08 nM | pIC50 ([3]; HCT116-MTAP null): 6.73

Cc1cc2cc(C(=O)N(Cc3ccc(C(F)(F)F)cn3)[C@H](C)c3ncccn3)c(F)cc2nc1N [Example 429, 2-amino-7-fluoro-3-methyl-N-((1R)-1-(2-pyrimidinyl)ethyl)-N-((5-(trifluoromethyl)-2-pyridinyl)methyl)-6-quinolinecarboxamide]
pIC50 [1]: 6.22 | Ki [2]: 0.91 nM | pIC50 ([3]; HCT116-MTAP null): 7.41

Cc1cc2cc(C(=O)N(Cc3ccc(C(F)(F)F)cn3)C3(c4ncccn4)CC3)ccc2nc1N [Example 430, 2-amino-3-methyl-N-(1-(2-pyrimidinyl)cyclopropyl)-N-((5-(trifluoromethyl)-2-pyridinyl)methyl)-6-quinolinecarboxamide]
pIC50 [1]: < 5.00 | Ki [2]: 0.42 nM | pIC50 ([3]; HCT116-MTAP null): 6.30

Cc1cc2cc(C(=O)N(Cc3ccc(C#N)cn3)[C@H](C)c3ncc(F)cc3F)ccc2nc1N [Example 431, 2-amino-N-((5-cyano-2-pyridinyl)methyl)-N-((1R)-1-(3,5-difluoro-2-pyridinyl)ethyl)-3-methyl-6-quinolinecarboxamide]
pIC50 [1]: 5.49 | Ki [2]: 0.07 nM | pIC50 ([3]; HCT116-MTAP null): 6.76

Cc1cc(N)nc2ccc(C(=O)N(Cc3ccc(C(F)(F)F)cn3)[C@H](C)c3ncccn3)cc12 [Example 432, 2-amino-4-methyl-N-((1R)-1-(2-pyrimidinyl)ethyl)-N-((5-(trifluoromethyl)-2-pyridinyl)methyl)-6-quinolinecarboxamide]
pIC50 [1]: 6.96 | Ki [2]: 0.57 nM | pIC50 ([3]; HCT116-MTAP null): 7.62

C[C@H](c1ncccn1)N(Cc1ccc(C(F)(F)F)cn1)C(=O)c1ccc2nc(N)cc(Cl)c2c1 [Example 433, 2-amino-4-chloro-N-((1R)-1-(2-pyrimidinyl)ethyl)-N-((5-(trifluoromethyl)-2-pyridinyl)methyl)-6-quinolinecarboxamide]
pIC50 [1]: 5.93 | Ki [2]: 1.26 nM | pIC50 ([3]; HCT116-MTAP null): 6.09

C[C@H](c1ncccn1)N(Cc1ccc(C(F)(F)F)cn1)C(=O)c1ccc2nc(N)c(Br)cc2c1 [Example 434, 2-amino-3-bromo-N-((1R)-1-(2-pyrimidinyl)ethyl)-N-((5-(trifluoromethyl)-2-pyridinyl)methyl)-6-quinolinecarboxamide]
pIC50 [1]: 5.62 | Ki [2]: < 0.1 nM | pIC50 ([3]; HCT116-MTAP null): 7.31

C[C@H](c1nccs1)N(Cc1ccc(Br)nn1)C(=O)c1ccc2nc(N)c(Br)cc2c1 [Example 435, 2-amino-3-bromo-N-((6-bromo-3-pyridazinyl)methyl)-N-((1R)-1-(1,3-thiazol-2-yl)ethyl)-6-quinolinecarboxamide]
pIC50 [1]: 5.48 | Ki [2]: 0.08 nM | pIC50 ([3]; HCT116-MTAP null): 7.18

Cc1cc2cc(C(=O)N(Cc3ccc(C(F)(F)F)cn3)CC(C)C)c(Cl)cc2nc1N [Example 436, 2-amino-7-chloro-3-methyl-N-(2-methylpropyl)-N-((5-(trifluoromethyl)-2-pyridinyl)methyl)-6-quinolinecarboxamide]
pIC50 [1]: 5.43 | Ki [2]: 0.14 nM | pIC50 ([3]; HCT116-MTAP null): 6.70

Cc1cc2cc(C(=O)N(Cc3ccc(C(F)(F)F)cn3)[C@H](C)c3ncccn3)c(Cl)cc2nc1N [Example 437, 2-amino-7-chloro-3-methyl-N-((1R)-1-(2-pyrimidinyl)ethyl)-N-((5-(trifluoromethyl)-2-pyridinyl)methyl)-6-quinolinecarboxamide]
pIC50 [1]: 5.87 | Ki [2]: 0.29 nM | pIC50 ([3]; HCT116-MTAP null): 7.12

Cc1cc2cc(C(=O)N(Cc3ccc(C#N)cn3)[C@H](C)c3ncccn3)c(Cl)cc2nc1N [Example 438, 2-amino-7-chloro-N-((5-cyano-2-pyridinyl)methyl)-3-methyl-N-((1R)-1-(2-pyrimidinyl)ethyl)-6-quinolinecarboxamide]
pIC50 [1]: 5.06 | Ki [2]: 0.76 nM | pIC50 ([3]; HCT116-MTAP null): 6.43

Cc1cc2cc(C(=O)N(Cc3cncc(Cl)c3)Cc3ccc(C(F)(F)F)cn3)ccc2nc1N [Example 439, 2-amino-N-((5-chloro-3-pyridinyl)methyl)-3-methyl-N-((5-(trifluoromethyl)-2-pyridinyl)methyl)-6-quinolinecarboxamide]
pIC50 [1]: < 5.00 | Ki [2]: 1.19 nM | pIC50 ([3]; HCT116-MTAP null): 6.46

[2H]C([2H])([2H])c1cc2cc(C(=O)N(Cc3ccc(C(F)(F)F)cn3)[C@H](C)c3ncccc3F)ccc2nc1N [Example 440, (R)-2-amino-N-(1-(3-fluoropyridin-2-yl)ethyl)-3-(methyl-d3)-N-((5-(trifluoromethyl)pyridin-2-yl)methyl)quinoline-6-carboxamide]
pIC50 [1]: 6.16 | Ki [2]: < 0.1 nM | pIC50 [3]: 7.42

[2H]C([2H])([2H])c1cc2cc(C(=O)N(Cc3ccc(C#N)cn3)[C@H](C)c3ncccn3)ccc2nc1N [Example 441, (R)-2-amino-N-((5-cyanopyridin-2-yl)methyl)-3-(methyl-d3)-N-(1-(pyrimidin-2-yl)ethyl)quinoline-6-carboxamide]
pIC50 [1]: 5.55 | Ki [2]: 0.06 nM | pIC50 ([3]; HCT116-MTAP null): 6.97

Cc1cc2cc(C(=O)N(Cc3ccc(C(F)(F)F)cn3)CC(F)(F)F)ccc2nc1N [Example 442, 2-amino-3-methyl-N-(2,2,2-trifluoroethyl)-N-((5-(trifluoromethyl)-2-pyridinyl)methyl)-6-quinolinecarboxamide]
pIC50 [1]: < 5.00 | Ki [2]: 6.87 nM | pIC50 ([3]; HCT116-MTAP null): 6.01

Cc1cc2cc(C(=O)N(Cc3ccc(C(F)(F)F)cn3)C[C@H](C)C(F)(F)F)ccc2nc1N [Example 458, 2-amino-3-methyl-N-((2S)-3,3,3-trifluoro-2-methylpropyl)-N-((5-(trifluoromethyl)-2-pyridinyl)methyl)-6-quinolinecarboxamide]
pIC50 [1]: < 5.00 | Ki [2]: 0.84 nM | pIC50 [3]: 6.23

Cc1cc2cc(C(=O)N(Cc3ccc(C#N)cn3)[C@H](C)c3ncccn3)ccc2nc1N [Example 502, (R)-2-amino-N-((5-cyanopyridin-2-yl)methyl)-3-methyl-N-(1-(pyrimidin-2-yl)ethyl)quinoline-6-carboxamide]
pIC50 [1]: 5.49 | Ki [2]: 0.06 nM | pIC50 ([3]; HCT116-MTAP null): 6.96

Cc1cc2cc(C(=O)N(Cc3ccc(Cl)cn3)[C@H](C)c3ncccn3)ccc2nc1N [Example 504, 2-amino-N-((5-chloro-2-pyridinyl)methyl)-3-methyl-N-((1R)-1-(2-pyrimidinyl)ethyl)-6-quinolinecarboxamide]
pIC50 [1]: 5.87 | Ki [2]: 0.05 nM | pIC50 ([3]; HCT116-MTAP null): 7.31

Cc1cc2cc(C(=O)N(Cc3ccc(C(F)(F)F)cn3)[C@@H]3COC[C@H]3O)ccc2nc1N [Example 505, 2-amino-N-((3R,4S)-4-hydroxytetrahydro-3-furanyl)-3-methyl-N-((5-(trifluoromethyl)-2-pyridinyl)methyl)-6-quinolinecarboxamide]
pIC50 [1]: 4.99 | Ki [2]: 2.51 nM | pIC50 ([3]; HCT116-MTAP null): 6.12

Cc1cc2c(CN(Cc3ccc(C(F)(F)F)cn3)C(=O)c3ccc4nc(N)c(C)cc4c3)ccnc2[nH]1 [Example 506, 2-amino-3-methyl-N-((2-methyl-1H-pyrrolo[2,3-b]pyridin-4-yl)methyl)-N-((5-(trifluoromethyl)-2-pyridinyl)methyl)-6-quinolinecarboxamide]
pIC50 [1]: 5.94 | Ki [2]: 0.01 nM | pIC50 ([3]; HCT116-MTAP null): 6.97

COC[C@@H](C)N(Cc1ccc(C(F)(F)F)cn1)C(=O)c1ccc2nc(N)c(C)cc2c1 [Example 507, 2-amino-N-((2R)-1-methoxy-2-propanyl)-3-methyl-N-((5-(trifluoromethyl)-2-pyridinyl)methyl)-6-quinolinecarboxamide]
pIC50 [1]: 6.04 | Ki [2]: 0.15 nM | pIC50 ([3]; HCT116-MTAP null): 7.34

Cc1cc2cc(C(=O)N(Cc3ccc(C(F)F)cn3)[C@H](C)c3ncccn3)ccc2nc1N [Example 508, 2-amino-N-((5-(difluoromethyl)-2-pyridinyl)methyl)-3-methyl-N-((1R)-1-(2-pyrimidinyl)ethyl)-6-quinolinecarboxamide]
pIC50 [1]: 5.77 | Ki [2]: 0.73 nM | pIC50 ([3]; HCT116-MTAP null): 7.25

Cc1cc2cc(C(=O)N(Cc3ccc(C(F)(F)F)nc3C)[C@H](C)c3ncccn3)ccc2nc1N [Example 509, 2-amino-3-methyl-N-((2-methyl-6-(trifluoromethyl)-3-pyridinyl)methyl)-N-((1R)-1-(2-pyrimidinyl)ethyl)-6-quinolinecarboxamide]
pIC50 [1]: 5.39 | Ki [2]: 0.13 nM | pIC50 ([3]; HCT116-MTAP null): 6.86
